# Measured values reported in patent US10758549B2, “Compositions of obeticholic acid and methods of use” (Intercept Pharmaceuticals, Inc., priority 2015, dated 2020).
# System: patients with PBC
# Experiment: Example 9: randomized double-blind placebo-controlled 12-month trial of OCA in PBC
# Assay type: in vivo, human
# Details: for Patients who achieved response (ALP<1.67×ULN, ALP reduction ≥15%, TB≤ULN) at Month 6 / Patients who achieved response (ALP<1.67×ULN, ALP reduction ≥15%, TB≤ULN) at Month 12: ITT; for Response at Month 6 [1] / Response at Month 12 [1]: Table 25 analysis
# Experimental: This example describes a randomized, double-blind, placebo-controlled, parallel-group, 12-month trial evaluating OCA in patients with PBC as a monotherapy.
# Patients with inflammatory bowel disease or who had undergone gastric bypass procedures were excluded (gastric lap band was acceptable). • Medical conditions that could cause non-hepatic increases in ALP (e.g., Paget's disease)
# ALP and TB composite response criteria were measured; a patient was designated as a responder if all three of the following conditions were met: • A value of ALP<1.67×ULN • ALP reduction from baseline ? 15% • A value of TB<ULN
# The absolute and percent change from Baseline in ALP, gamma-glutamyl transferase (GGT), alanine aminotransferase (ALT), AST, total bilirubin, conjugated (direct) bilirubin, albumin, prothrombin time and international normalized ratio (INR) at all-time points was measured. The percentage of patients with a decrease in ALP of ? 10%, ? 15%, ? 20%, and ? 40% from Baseline or ? ULN at month 12 was measured. The percentage of patients achieving the following biochemical response criteria was also measured: • ALP ? 3×ULN and AST ? 2×ULN and bilirubin ? ULN ((Corpechot 2008);
# Bile acid sequestrant (BAS) concomitant exposure. The primary analysis set used for all efficacy analyses, along with the summarization of disposition along with demographics and baseline characteristics, was the ‘Intent-to-Treat’ (ITT) analysis set. This analysis set included all randomized patients who received at least one dose of blinded study drug. When utilizing this analysis set, patients were analyzed according to the treatment group that they were randomized to regardless of the actual treatment received. It should be noted that all but one randomized patient received at least one dose of blinded study drug.
# A Cochran-Mantel-Haenszel (CMH) test which adjusted for both randomization stratification variables as described above, was used for pre-specified analysis. In tandem with the CMH test, a Breslow-Day test was also conducted, to test for the homogeneity of the treatment effect across the different randomization strata.
# [1] = 10 mg OCA (N = 73), listed as Obeticholic acid
# [2] = patients with Baseline ALP ≥ 1.67 × ULN but < 2.0 × ULN, 10 mg OCA
structure (smiles),measurement,setting,value
"CC[C@H]1[C@@H](O)[C@@H]2[C@H](CC[C@]3(C)[C@@H]([C@H](C)CCC(=O)O)CC[C@@H]23)[C@@]2(C)CC[C@@H](O)C[C@@H]12 [OCA, 3α,7α-dihydroxy-6α-ethyl-5β-cholan-24-oic acid]","ALP Absolute Change from Baseline to Month 12 (U/L), Mean",10 mg OCA,−11|7.1 U/L
same,"ALP Absolute Change from Baseline to Month 12 (U/L), Median",10 mg OCA,−99.0 U/L
same,"ALP Percentage Change from Baseline to Month 12 (%), Mean",10 mg OCA,−36.4%
same,"ALP Percentage Change from Baseline to Month 12 (%), Median",10 mg OCA,−38.3%
same,"Month 12 ALP Concentration (U/L), Mean",10 mg OCA,191.2 U/L
same,"Month 12 ALP Concentration (U/L), Median",10 mg OCA,181.7 U/L
same,"Month 12 ALP Concentration (×ULN), Mean",10 mg OCA,1.606 ×ULN
same,"Month 12 ALP Concentration (×ULN), Median",10 mg OCA,1.527 ×ULN
same,Patients with ALP < 1.67 × ULN at Month 12,10 mg OCA (N = 73),(54.8%)
same,Patients with Decrease in ALP ≥ 10% at Month 12,10 mg OCA (N = 73),(83.6%)
same,Patients with Decrease in ALP ≥ 15% at Month 12,10 mg OCA (N = 73),(78.1%)
same,Patients with Decrease in ALP ≥ 20% at Month 12,10 mg OCA (N = 73),(74.0%)
same,Patients with Decrease in ALP ≥ 40% at Month 12,10 mg OCA (N = 73),(34.3%)
same,"Patients who achieved response (ALP<1.67×ULN, ALP reduction ≥15%, TB≤ULN) at Month 6",10 mg OCA (N = 73),37 (50.7%)
same,"Patients who achieved response (ALP<1.67×ULN, ALP reduction ≥15%, TB≤ULN) at Month 6",[1],37 (51) %
same,"Patients who achieved response (ALP<1.67×ULN, ALP reduction ≥15%, TB≤ULN) at Month 12",[1],34 (47) %
same,Patients with Decrease in ALP ≥ 15% at Month 12,"10 mg OCA (N = 73), listed as obeticholic acid",77%
same,patients who experienced an increase in ALP,"10 mg obeticholic acid, 12 months (placebo 36%)",2%
same,up-titrated patients who met the composite endpoint,33 patients titrated from 5 mg to 10 mg at Month 6,39%
same,"ALP Absolute Change from Baseline to Month 12 (U/L), Median",OCA Titration,−85.5 U/L
same,"ALP Percentage Change from Baseline to Month 12 (%), Mean",OCA Titration,−30.5%
same,"ALP Percentage Change from Baseline to Month 12 (%), Median",OCA Titration,−31.5%
same,"Month 12 ALP Concentration (U/L), Mean",OCA Titration,219.5 U/L
same,"Month 12 ALP Concentration (U/L), Median",OCA Titration,196.6 U/L
same,"Month 12 ALP Concentration (×ULN), Mean",OCA Titration,1.851 ×ULN
same,"Month 12 ALP Concentration (×ULN), Median",OCA Titration,1.661 ×ULN
same,Patients with ALP < 1.67 × ULN at Month 12,OCA Titration (N = 70),(47.1%)
same,Patients with Decrease in ALP ≥ 10% at Month 12,OCA Titration (N = 70),(78.6%)
same,Patients with Decrease in ALP ≥ 15% at Month 12,OCA Titration (N = 70),(77.1%)
same,Patients with Decrease in ALP ≥ 20% at Month 12,OCA Titration (N = 70),(70.0%)
same,Patients with Decrease in ALP ≥ 40% at Month 12,OCA Titration (N = 70),(30.0%)
same,Patients with Decrease in ALP ≥ 15% at Month 12,"OCA Titration (N = 70), listed as obeticholic acid",77%
same,"Patients who achieved response (ALP<1.67×ULN, ALP reduction ≥15%, TB≤ULN) at Month 6","OCA Titration, 5 mg (N = 70)",24 (34.3%)
same,"Patients who achieved response (ALP<1.67×ULN, ALP reduction ≥15%, TB≤ULN) at Month 6","OCA Titration, 5 mg (N = 70), listed as Obeticholic acid",24 (34) %
same,"Patients who achieved response (ALP<1.67×ULN, ALP reduction ≥15%, TB≤ULN) at Month 12","OCA Titration, 5 mg or 10 mg (N = 70), listed as Obeticholic acid",32 (46) %
same,Response at Month 6 [1],10 mg OCA (N = 60),(41.7%)
same,Response at Month 12 [1],10 mg OCA (N = 60),(43.3%)
same,Response at Month 6 [1],OCA Titration (N = 60),(35.0%)
same,Response at Month 12 [1],OCA Titration (N = 60),(38.3%)
same,responders who became non-responders,"continued dosing of 5 mg QD, month 6 to month 12",19%
same,ALP < 1.67 × ULN and Decrease ≥ 15% at Month 6 [3],[2],(88.9%)
same,ALP < 1.67 × ULN and Decrease ≥ 15% at Month 12 [3],[2],(77.8%)
same,ALP < 1.67 × ULN at Month 6 [3],[2],(94.4%)
